ChEMBL document CHEMBL4387741, “Optimization of novel reversible Bruton's tyrosine kinase inhibitors identified using Tethering-fragment-based screens” (Bioorg Med Chem, 2019)

Key:
[1] = molecular target: Myosin light chain kinase family member 4 (Homo sapiens) (UniProt Q86YV6); assay: Inhibition of wild-type human partial length MYLK4 (V79 to S380 residues) expressed in bacterial expression system at 1 uM by Kinomescan method relative to control
[2] = molecular target: Non-receptor tyrosine-protein kinase TNK1 (Homo sapiens) (UniProt Q13470); assay: Inhibition of wild-type human full length TNK1 (M1 to P661 residues) expressed in bacterial expression system at 1 uM by Kinomescan method relative to control
[3] = molecular target: Serine/threonine-protein kinase haspin (Homo sapiens) (UniProt Q8TF76); assay: Inhibition of wild-type human partial length HASPIN (I452 to K798 residues) expressed in mammalian expression system at 1 uM by Kinomescan method relative to control
Serine/threonine-protein kinase haspin (Homo sapiens), sequence (Q8TF76 whole entry, the tested form may be a part): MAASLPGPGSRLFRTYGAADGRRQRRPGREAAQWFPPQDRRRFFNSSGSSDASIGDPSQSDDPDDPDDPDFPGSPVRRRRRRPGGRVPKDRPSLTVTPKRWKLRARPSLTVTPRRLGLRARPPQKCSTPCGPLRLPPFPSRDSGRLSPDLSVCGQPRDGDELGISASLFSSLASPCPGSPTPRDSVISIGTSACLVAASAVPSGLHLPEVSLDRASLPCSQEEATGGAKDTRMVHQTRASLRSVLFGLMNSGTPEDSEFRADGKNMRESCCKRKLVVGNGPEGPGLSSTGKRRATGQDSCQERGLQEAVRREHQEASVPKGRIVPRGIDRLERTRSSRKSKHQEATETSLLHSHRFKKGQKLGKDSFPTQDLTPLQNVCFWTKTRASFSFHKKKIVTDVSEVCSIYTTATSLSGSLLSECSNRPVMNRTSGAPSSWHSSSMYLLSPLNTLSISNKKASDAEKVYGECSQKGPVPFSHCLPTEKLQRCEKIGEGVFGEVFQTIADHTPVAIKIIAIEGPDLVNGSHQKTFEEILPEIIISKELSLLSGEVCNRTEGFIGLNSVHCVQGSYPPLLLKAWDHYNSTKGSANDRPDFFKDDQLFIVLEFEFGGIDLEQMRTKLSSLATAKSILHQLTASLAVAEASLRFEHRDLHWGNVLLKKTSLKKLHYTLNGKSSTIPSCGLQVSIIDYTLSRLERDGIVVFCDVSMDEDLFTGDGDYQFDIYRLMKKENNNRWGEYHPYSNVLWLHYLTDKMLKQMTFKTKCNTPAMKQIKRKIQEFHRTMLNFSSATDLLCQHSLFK

[4] = molecular target: Mitogen-activated protein kinase kinase kinase 10 (Homo sapiens) (UniProt Q02779); assay: Inhibition of wild-type human partial length MLK2 (V52 to W380 residues) expressed in bacterial expression system at 1 uM by Kinomescan method relative to control
[5] = molecular target: Receptor tyrosine-protein kinase erbB-4 (Homo sapiens) (UniProt Q15303); assay: Inhibition of wild-type human partial length ERBB4 (L690 to K994 residues) expressed in bacterial expression system at 1 uM by Kinomescan method relative to control
[6] = molecular target: Tyrosine-protein kinase HCK (Homo sapiens) (UniProt P08631); assay: Inhibition of wild-type human full length HCK (M22 to P526 residues) expressed in bacterial expression system at 1 uM by Kinomescan method relative to control
[7] = molecular target: MAP/microtubule affinity-regulating kinase 4 (Homo sapiens) (UniProt Q96L34); assay: Inhibition of wild-type human partial length MARK4 (K29 to G340 residues) expressed in bacterial expression system at 1 uM by Kinomescan method relative to control
[8] = molecular target: RAC-beta serine/threonine-protein kinase (Homo sapiens) (UniProt P31751); assay: Inhibition of wild-type human partial length AKT2 expressed in bacterial expression system at 1 uM by Kinomescan method relative to control
[9] = molecular target: Dual specificity mitogen-activated protein kinase kinase 1 (Homo sapiens) (UniProt Q02750); assay: Inhibition of wild-type human full length MEK1 (M1 to V393 residues) expressed in mammalian expression system at 1 uM by Kinomescan method relative to control
[10] = molecular target: Leukocyte tyrosine kinase receptor (Homo sapiens) (UniProt P29376); assay: Inhibition of wild-type human partial length LTK (P422 to S744 residues) expressed in bacterial expression system at 1 uM by Kinomescan method relative to control
[11] = molecular target: Protein-tyrosine kinase 2-beta (Homo sapiens) (UniProt Q14289); assay: Inhibition of wild-type human full length PYK2 (M1 to E967 residues) expressed in bacterial expression system at 1 uM by Kinomescan method relative to control
[12] = molecular target: Serine/threonine-protein kinase 32A (Homo sapiens) (UniProt Q8WU08); assay: Inhibition of wild-type human full length YANK1 (M1 to L396 residues) expressed in mammalian expression system at 1 uM by Kinomescan method relative to control
[13] = molecular target: Serine/threonine-protein kinase MRCK alpha (Homo sapiens) (UniProt Q5VT25); assay: Inhibition of wild-type human partial length MRCKA (L57 to V418 residues) expressed in bacterial expression system at 1 uM by Kinomescan method relative to control
[14] = molecular target: Serine/threonine-protein kinase PAK 3 (Homo sapiens) (UniProt O75914); assay: Inhibition of wild-type human full length PAK3 (M1 to R544 residues) expressed in bacterial expression system at 1 uM by Kinomescan method relative to control
Serine/threonine-protein kinase PAK 3 (Homo sapiens), sequence (O75914 whole entry, looked up, the tested form may be a part): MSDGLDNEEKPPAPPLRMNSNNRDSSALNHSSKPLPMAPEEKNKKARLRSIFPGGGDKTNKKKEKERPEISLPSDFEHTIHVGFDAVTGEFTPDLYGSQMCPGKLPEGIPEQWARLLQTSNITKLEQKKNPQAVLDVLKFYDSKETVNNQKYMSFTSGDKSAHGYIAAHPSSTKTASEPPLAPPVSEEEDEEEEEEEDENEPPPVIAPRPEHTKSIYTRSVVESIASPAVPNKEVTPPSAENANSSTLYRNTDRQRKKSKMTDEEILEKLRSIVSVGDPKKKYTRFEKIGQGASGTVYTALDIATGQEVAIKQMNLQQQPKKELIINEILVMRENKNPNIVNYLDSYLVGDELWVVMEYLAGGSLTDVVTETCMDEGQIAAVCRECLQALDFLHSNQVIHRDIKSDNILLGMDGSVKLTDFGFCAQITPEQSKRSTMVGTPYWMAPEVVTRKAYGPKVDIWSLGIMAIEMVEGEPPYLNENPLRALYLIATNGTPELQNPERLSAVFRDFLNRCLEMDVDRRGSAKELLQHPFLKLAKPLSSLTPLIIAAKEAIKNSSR

[15] = molecular target: Mitogen-activated protein kinase 7 (Homo sapiens) (UniProt Q13164); assay: Inhibition of wild-type human partial length ERK5 (M1 to A409 residues) expressed in bacterial expression system at 1 uM by Kinomescan method relative to control
[16] = molecular target: Tyrosine-protein kinase Tec (Homo sapiens) (UniProt P42680); assay: Inhibition of wild-type human partial length TEC (L341 to D620 residues) expressed in bacterial expression system at 1 uM by Kinomescan method relative to control
[17] = molecular target: Serine/threonine-protein kinase NIM1 (Homo sapiens) (UniProt Q8IY84); assay: Inhibition of wild-type human partial length NIM1 (Q44 to N355 residues) expressed in mammalian expression system at 10 uM by Kinomescan method relative to control
Serine/threonine-protein kinase NIM1 (Homo sapiens), sequence (Q8IY84 whole entry, the tested form may be a part): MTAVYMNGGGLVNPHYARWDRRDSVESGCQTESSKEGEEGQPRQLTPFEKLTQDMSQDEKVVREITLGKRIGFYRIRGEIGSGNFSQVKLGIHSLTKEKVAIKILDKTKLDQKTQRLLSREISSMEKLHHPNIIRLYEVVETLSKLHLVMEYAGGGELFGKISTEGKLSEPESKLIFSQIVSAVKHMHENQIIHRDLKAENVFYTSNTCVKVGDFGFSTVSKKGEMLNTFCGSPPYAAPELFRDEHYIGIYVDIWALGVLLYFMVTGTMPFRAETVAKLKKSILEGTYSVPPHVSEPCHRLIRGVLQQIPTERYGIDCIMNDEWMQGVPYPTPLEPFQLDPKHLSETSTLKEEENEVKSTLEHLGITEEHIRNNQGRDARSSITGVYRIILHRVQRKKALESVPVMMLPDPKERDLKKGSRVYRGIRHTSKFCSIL

[18] = molecular target: Muscle, skeletal receptor tyrosine-protein kinase (Homo sapiens) (UniProt O15146); assay: Inhibition of wild-type human partial length MUSK (M553 to V869 residues) expressed in bacterial expression system at 10 uM by Kinomescan method relative to control
Muscle, skeletal receptor tyrosine-protein kinase (Homo sapiens), sequence (O15146 whole entry, the tested form may be a part): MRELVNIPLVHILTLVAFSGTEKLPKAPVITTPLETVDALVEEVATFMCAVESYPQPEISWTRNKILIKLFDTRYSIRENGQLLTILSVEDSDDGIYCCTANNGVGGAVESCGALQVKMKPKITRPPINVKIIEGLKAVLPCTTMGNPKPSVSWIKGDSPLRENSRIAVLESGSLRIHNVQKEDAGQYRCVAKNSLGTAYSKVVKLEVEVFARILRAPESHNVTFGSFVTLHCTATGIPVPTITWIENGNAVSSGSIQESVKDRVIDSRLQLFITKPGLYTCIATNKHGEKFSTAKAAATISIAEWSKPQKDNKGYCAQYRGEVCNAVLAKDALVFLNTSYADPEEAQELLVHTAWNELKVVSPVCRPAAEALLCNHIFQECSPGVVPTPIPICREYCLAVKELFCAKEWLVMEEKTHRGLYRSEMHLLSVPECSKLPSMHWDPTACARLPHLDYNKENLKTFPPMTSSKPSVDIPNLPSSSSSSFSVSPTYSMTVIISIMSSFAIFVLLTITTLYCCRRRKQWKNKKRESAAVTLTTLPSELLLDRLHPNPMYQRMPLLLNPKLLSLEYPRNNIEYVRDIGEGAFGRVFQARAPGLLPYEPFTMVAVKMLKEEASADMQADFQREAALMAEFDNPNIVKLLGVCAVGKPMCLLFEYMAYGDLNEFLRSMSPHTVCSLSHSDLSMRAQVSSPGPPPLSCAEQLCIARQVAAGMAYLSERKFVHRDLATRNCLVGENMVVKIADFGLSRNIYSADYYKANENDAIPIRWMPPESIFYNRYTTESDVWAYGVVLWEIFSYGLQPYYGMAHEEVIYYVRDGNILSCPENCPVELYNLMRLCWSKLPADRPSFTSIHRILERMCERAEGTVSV

[19] = molecular target: Leucine-rich repeat serine/threonine-protein kinase 2 (Homo sapiens) (UniProt Q5S007); assay: Inhibition of wild-type human partial length LRRK2 (H970 to E2527 residues) expressed in mammalian expression system at 10 uM by Kinomescan method relative to control
[20] = molecular target: Mitogen-activated protein kinase 12 (Homo sapiens) (UniProt P53778); assay: Inhibition of wild-type human full length p38-gamma (M1 to L367 residues) expressed in mammalian expression system at 10 uM by Kinomescan method relative to control
Mitogen-activated protein kinase 12 (Homo sapiens), sequence (P53778 whole entry, the tested form may be a part): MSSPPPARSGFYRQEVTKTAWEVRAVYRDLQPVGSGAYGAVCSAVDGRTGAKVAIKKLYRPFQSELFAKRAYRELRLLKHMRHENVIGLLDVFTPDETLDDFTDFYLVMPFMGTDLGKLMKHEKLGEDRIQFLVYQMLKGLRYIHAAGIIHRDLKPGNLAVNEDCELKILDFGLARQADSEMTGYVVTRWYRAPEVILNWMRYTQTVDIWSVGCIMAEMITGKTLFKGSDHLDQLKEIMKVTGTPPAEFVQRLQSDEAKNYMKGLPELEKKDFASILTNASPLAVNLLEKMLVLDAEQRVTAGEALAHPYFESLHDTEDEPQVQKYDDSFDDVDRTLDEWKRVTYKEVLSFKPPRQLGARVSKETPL

[21] = molecular target: Mitogen-activated protein kinase 14 (Homo sapiens) (UniProt Q16539); assay: Inhibition of wild-type human full length p38-alpha (M1 to S360 residues) expressed in bacterial expression system at 10 uM by Kinomescan method relative to control
[22] = molecular target: Serine/threonine-protein kinase Nek2 (Homo sapiens) (UniProt P51955); assay: Inhibition of wild-type human partial length NEK2 (M1 to K309 residues) expressed in bacterial expression system at 10 uM by Kinomescan method relative to control
Serine/threonine-protein kinase Nek2 (Homo sapiens), sequence (P51955 whole entry, the tested form may be a part): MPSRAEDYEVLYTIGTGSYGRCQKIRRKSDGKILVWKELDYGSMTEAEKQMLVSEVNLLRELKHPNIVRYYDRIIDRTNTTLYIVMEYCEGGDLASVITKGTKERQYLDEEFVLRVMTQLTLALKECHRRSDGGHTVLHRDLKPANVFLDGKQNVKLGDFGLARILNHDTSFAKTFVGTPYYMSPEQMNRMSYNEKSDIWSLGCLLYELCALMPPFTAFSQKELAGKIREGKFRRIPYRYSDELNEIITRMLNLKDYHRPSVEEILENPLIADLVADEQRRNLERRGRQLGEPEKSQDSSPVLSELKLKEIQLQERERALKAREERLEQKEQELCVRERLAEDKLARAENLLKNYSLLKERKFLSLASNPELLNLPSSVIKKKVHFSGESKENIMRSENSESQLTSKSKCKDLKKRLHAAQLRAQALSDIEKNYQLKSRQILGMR

[23] = molecular target: Tyrosine-protein kinase receptor Tie-1 (Homo sapiens) (UniProt P35590); assay: Inhibition of wild-type human partial length TIE1 (T819 to A1138 residues) expressed in bacterial expression system at 10 uM by Kinomescan method relative to control
[24] = molecular target: Serine/threonine-protein kinase PAK 5 (Homo sapiens) (UniProt Q9P286); assay: Inhibition of wild-type human partial length PAK7 (Y400 to H719 residues) expressed in bacterial expression system at 10 uM by Kinomescan method relative to control
Serine/threonine-protein kinase PAK 5 (Homo sapiens), sequence (Q9P286 whole entry, looked up, the tested form may be a part): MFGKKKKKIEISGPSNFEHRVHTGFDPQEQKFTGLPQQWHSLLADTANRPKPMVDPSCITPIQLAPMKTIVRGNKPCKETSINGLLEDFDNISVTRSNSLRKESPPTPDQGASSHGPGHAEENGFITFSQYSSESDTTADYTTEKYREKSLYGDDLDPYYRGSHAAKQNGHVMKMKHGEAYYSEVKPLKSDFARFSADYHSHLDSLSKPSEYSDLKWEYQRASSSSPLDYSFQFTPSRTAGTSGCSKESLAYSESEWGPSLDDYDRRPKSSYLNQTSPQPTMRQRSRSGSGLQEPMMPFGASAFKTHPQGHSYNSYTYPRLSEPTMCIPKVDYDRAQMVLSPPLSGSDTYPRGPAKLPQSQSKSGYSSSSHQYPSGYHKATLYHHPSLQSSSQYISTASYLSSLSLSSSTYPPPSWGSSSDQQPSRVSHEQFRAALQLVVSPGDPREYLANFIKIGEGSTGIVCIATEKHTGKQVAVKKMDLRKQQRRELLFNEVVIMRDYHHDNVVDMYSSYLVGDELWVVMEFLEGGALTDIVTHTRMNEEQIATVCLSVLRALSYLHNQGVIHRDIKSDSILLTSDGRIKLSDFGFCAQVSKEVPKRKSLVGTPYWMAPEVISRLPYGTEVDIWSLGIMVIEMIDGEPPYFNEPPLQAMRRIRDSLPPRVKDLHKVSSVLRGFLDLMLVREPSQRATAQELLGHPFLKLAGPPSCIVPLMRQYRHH

[25] = molecular target: Cyclin-dependent kinase 13 (Homo sapiens) (UniProt Q14004); assay: Inhibition of wild-type human partial length CDC2L5 (H675 to S1054 residues) expressed in mammalian expression system at 10 uM by Kinomescan method relative to control
[26] = molecular target: Dual specificity protein kinase TTK (Homo sapiens) (UniProt P33981); assay: Inhibition of wild-type human partial length TTK (N505 to V798 residues) expressed in bacterial expression system at 10 uM by Kinomescan method relative to control
Dual specificity protein kinase TTK (Homo sapiens), sequence (P33981 whole entry, the tested form may be a part): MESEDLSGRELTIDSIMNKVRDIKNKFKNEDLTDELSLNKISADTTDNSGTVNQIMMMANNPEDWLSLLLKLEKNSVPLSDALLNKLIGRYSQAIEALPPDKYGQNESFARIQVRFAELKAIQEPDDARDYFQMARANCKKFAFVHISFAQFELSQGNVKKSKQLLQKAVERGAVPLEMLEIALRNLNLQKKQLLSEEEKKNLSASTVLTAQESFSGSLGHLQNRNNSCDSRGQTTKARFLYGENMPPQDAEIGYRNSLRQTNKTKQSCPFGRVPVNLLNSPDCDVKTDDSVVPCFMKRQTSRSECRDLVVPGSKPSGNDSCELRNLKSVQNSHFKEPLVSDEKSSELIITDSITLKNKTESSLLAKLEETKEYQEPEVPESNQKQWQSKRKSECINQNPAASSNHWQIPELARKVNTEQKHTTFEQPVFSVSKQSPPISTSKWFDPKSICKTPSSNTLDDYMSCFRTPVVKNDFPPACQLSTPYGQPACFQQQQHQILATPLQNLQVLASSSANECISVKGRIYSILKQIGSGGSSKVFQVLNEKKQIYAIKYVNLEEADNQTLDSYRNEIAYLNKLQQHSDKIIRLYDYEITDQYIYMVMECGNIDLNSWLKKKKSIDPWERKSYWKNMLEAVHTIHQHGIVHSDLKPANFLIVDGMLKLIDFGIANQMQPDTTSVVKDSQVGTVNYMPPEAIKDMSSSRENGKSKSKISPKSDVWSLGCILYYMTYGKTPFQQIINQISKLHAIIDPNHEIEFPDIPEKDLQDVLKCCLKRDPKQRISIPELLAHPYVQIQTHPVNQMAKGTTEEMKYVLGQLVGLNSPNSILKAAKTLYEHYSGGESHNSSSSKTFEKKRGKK

[27] = system: Mast/stem cell growth factor receptor Kit (Homo sapiens), P10721 [A829P]; assay: Inhibition of human partial length KIT A829P mutant (I571 to D952 residues) expressed in mammalian expression system at 10 uM by Kinomescan method relative to control

SMILES: O=C(Nc1cccc([C@@H]2CN(c3ncnc4[nH]ccc34)CCN2CCO)c1)Nc1c(F)cccc1N1CCCC1
- inhibition [1]: 100%
- inhibition [2]: 65%
- inhibition [3]: 78%
- inhibition [4]: 74%
- inhibition [5]: 100%
- inhibition [6]: 76%
- inhibition [7]: 77%
- inhibition [8]: 100%
- inhibition [9]: 68%
- inhibition [10]: 100%
- inhibition [11]: 84%
- inhibition [12]: 100%
- inhibition [13]: 100%
- inhibition [14]: 72%
- inhibition [15]: 100%
- inhibition [16]: 45%

SMILES: O=C(Nc1cccc([C@H]2CCCN(c3ncnc4[nH]ccc34)C2)c1)Nc1ccccc1N1CCCC1
- inhibition [17]: 75%
- inhibition [18]: 97%
- inhibition [19]: 96%
- inhibition [20]: 68%
- inhibition [21]: 100%
- inhibition [22]: 94%
- inhibition [23]: 45%
- inhibition [24]: 69%
- inhibition [25]: 97%
- inhibition [26]: 78%
- inhibition [27]: 15%
